# Source: USRE48842E1, “Pyrimido-pyrrolo-oxazine-dione compound inhibitors of the cystic fibrosis transmembrane conductance regulator protein and uses therefor” (The Regents of the University of California, priority 2011, dated 2021)
# Where “and” joins values, the source holds several entries; their conditions need not be identical. Equal values may be shown once.
# Columns and labels:
# [1] = In vitro metabolism in hepatic microsomes (LC/MS); type: in vitro ADME, rat; details: in the presence of NADPH
# Procedure: (§1) In Vitro Metabolism in Hepatic Microsomes—A compound of structure (I) was incubated for specified times at 37° C. with rat liver microsomes (e.g., 1 mg protein/ml; Sigma-Aldrich, St. Louis, Mo.) in potassium phosphate buffer (100 mM) containing NADPH (0 or 1 mM). The mixture was then chilled on ice, and 0.5 ml of ice-cold ethyl acetate was added. Samples were centrifuged for 15 min at 3,000 rpm, and the supernatant was evaporated to dryness under nitrogen. The residue was dissolved in 150 μl mobile phase (acetonitrile:water 3:1, containing 0.1% formic acid) for LC/MS analysis. Reverse-phase HPLC separations were carried out using a Waters C18 column (2.1×100 mm, […]) equipped with a solvent delivery system (Waters model 2690, Milford, Mass.). The solvent system consisted of a linear gradient from 5 to 95% acetonitrile run over 16 min (0.2 mL/min flow rate). Mass spectra were acquired on an Alliance HT 2790+ZQ mass spectrometer using negative ion detection.
# as §1, with “Liquid Chromatography/Mass Spectrometry—Compounds (each at 5 μM) were” for “In Vitro Metabolism in Hepatic Microsomes—A compound of structure (I) was”, “(1” for “(e.g., 1”, “150” for “150 μl”, “detection, scanning from 150 to 1500 Da. The electrospray ion source parameters were as follows: capillary voltage 3.5 kV (positive ion mode), cone voltage 37 V, source temperature 120° C., desolvation temperature 250° C., cone gas flow 25 L/h, and dessolvation gas flow 350 L/h.” for “detection.”
# PPQ-102 is a small-molecule inhibitor of CFTR chloride conductance with efficacy in preventing and reversing cyst formation in an organ culture model of PKD (see, e.g., Tradtrantip et al., J. Med. Chem. 2009, supra; Int'l Patent Appl. Publication No. WO 2011/019737). Preliminary analysis of the metabolic stability and aqueous solubility of PPQ-102, indicated poorer metabolic stability and lower water solubility (˜2 μM in albumin-free saline) than desired for optimal drugability. In vitro metabolic stability was determined by compound incubation with hepatic microsomes at 37° C. for specified times in the absence vs. presence of NADPH, following by LC/MS analysis. Shown in FIG. 6A is PPQ-102 disappearance in hepatic microsomes in the presence of NADPH, with ˜60% disappearance in 30 min.
# human wildtype CFTR [2] = target: T1, human wildtype CFTR (Homo sapiens, UniProt P13569); test: Short-circuit current analysis of CFTR inhibition in CFTR-expressing FRT cells; type: cell-based; design: expressed in transfected cells; host or cells: Fischer rat thyroid (FRT) epithelial cells on Snapwell inserts; details: for inhibition of short-circuit current: 100 nM
# T1 sequence (P13569 whole entry): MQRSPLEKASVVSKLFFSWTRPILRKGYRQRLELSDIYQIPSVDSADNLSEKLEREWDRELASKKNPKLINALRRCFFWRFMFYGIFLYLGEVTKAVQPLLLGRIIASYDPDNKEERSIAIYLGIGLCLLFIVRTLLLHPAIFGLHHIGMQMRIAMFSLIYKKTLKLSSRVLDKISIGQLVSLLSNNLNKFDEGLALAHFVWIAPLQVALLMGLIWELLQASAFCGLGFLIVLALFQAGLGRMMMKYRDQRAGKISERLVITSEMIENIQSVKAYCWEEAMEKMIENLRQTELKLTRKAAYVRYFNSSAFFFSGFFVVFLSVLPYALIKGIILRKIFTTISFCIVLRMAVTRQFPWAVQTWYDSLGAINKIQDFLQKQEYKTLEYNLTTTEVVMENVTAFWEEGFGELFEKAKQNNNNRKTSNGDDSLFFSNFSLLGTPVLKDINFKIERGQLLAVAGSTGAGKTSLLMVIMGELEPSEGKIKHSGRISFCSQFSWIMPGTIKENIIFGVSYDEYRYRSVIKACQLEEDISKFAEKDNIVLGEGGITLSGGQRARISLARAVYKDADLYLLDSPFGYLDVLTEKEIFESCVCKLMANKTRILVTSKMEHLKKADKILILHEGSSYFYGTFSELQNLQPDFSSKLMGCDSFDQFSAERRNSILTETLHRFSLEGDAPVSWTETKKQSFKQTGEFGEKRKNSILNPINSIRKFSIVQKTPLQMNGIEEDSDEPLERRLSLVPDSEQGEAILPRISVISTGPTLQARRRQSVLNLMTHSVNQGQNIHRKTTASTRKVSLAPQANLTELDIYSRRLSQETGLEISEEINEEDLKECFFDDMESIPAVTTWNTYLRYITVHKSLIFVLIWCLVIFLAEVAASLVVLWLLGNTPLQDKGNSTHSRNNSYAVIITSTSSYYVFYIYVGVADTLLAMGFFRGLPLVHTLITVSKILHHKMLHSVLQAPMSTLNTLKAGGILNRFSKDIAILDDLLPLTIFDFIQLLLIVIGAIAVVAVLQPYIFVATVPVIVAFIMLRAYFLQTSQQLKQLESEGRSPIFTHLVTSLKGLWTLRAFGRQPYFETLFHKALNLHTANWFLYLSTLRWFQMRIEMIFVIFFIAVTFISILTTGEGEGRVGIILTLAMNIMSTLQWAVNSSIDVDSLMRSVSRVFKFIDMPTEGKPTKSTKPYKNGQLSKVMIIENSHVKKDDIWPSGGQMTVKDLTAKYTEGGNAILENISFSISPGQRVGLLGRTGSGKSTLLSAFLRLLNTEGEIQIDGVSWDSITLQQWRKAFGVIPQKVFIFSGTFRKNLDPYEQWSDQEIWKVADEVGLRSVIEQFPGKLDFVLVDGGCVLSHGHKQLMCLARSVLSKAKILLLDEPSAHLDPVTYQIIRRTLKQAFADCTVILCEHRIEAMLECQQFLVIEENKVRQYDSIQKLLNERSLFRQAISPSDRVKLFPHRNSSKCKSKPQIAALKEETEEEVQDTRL
# Procedure: Short-Circuit Current—Snapwell inserts containing CFTR-expressing FRT cells were mounted in an Ussing chamber. The hemichambers contained 5 mL of buffer containing 75 mM NaCl and 75 mM Na gluconate (apical) and 150 mM NaCl (basolateral) (pH 7.3), and the basolateral membrane was permeabilized with 250 μg/mL amphotericin B, as described (see, e.g., Sonawane et al., FASEB J 2006, supra). Short-circuit current was recorded continuously using a DVC-1000 voltage clamp (World Precision Instruments) using Ag/AgCl electrodes and 3 M KCl agar bridges.
# Current was measured in CFTR-expressing FRT cells in which the basolateral membrane was permeabilized and in the presence of a transepithelial chloride concentration gradient, so that current is a quantitative linear measure of CFTR function. CFTR was activated by forskolin, followed by serial additions of increasing concentrations of test compounds.
# CFTR inhibition potency was measured by short-circuit current analysis in FRT epithelial cells expressing human CFTR in presence of a transepithelial chloride gradient and in which the basolateral membrane was permeabilized with amphotericin B. Under these conditions short-circuit current is proportional to CFTR chloride conductance.
# human wildtype CFTR [3] = target: T1, human wildtype CFTR; test: Fluorescence plate reader assay of CFTR inhibition (iodide influx); type: cell-based; design: expressed in transfected cells; host or cells: Fischer rat thyroid (FRT) cells; details: for IC50 / IC50 (μm)^A: Determined by micro-plate reader assay, FRT cells co-expressing human wild type CFTR and YFP-H148Q
# Procedure: Cell Culture and Plate Reader Assay of CFTR Inhibition—Fischer rat thyroid (FRT) cells co-expressing human wild type CFTR and the halide indicator YFP-H148Q were cultured in 96-well black-walled microplates (Corning Costar) at a density of 20,000 cells per well in Coon's modified F12 medium containing 10% fetal bovine serum, 2 mM L-glutamine, 100 U/mL penicillin and 100 μg/mL streptomycin. CFTR chloride conductance was assayed at 48 h after plating on a FluoStar fluorescence plate reader (BMG Lab Technologies) as described (see, e.g., Ma et al., J Clin Invest. 2002, supra). Each well was washed 3 times with PBS, leaving 60 μL PBS. Test compounds were added and incubated with the cells for 45 min. Then, 5 μL of a CFTR-activating cocktail (10 μM forskolin, 100 μM IBMX, 20 μM apigenin in PBS) was added. After 15 min, each well was assayed for iodide influx by recording fluorescence continuously (200 ms per point) for 2 s (baseline) and then for 10 s after rapid addition of 160 μL of isosmolar PBS in which 137 mM chloride was replaced by iodide. The initial rate of iodide influx was computed from fluorescence data by non-linear regression.
# Initial testing of the compounds for the capability to inhibit CFTR was performed using a plate-reader assay in which iodide influx was measured in FRT cells co-expressing human wild type CFTR and the iodide-sensing yellow fluorescent protein YFP-H148Q/1152L. […] Table B below provides IC50 values for PPQ and BPO compounds.
# The relative IC50 values obtained from the plate reader assay are useful for comparisons. Absolute IC50 values obtained from the plate-reader assay are approximate, generally underestimating compound potency because of assay non-linearities, pH-dependent YFP fluorescence, the use of iodide instead of chloride, and compound dilution at the start of the assay (see, e.g., Galietta et al., Am. J. Physiol. Cell Physiol. 281:C1734-42 (2001)).
# [4] = Determined by short-circuit current assay, read-out: IC50 (μM)^B
# [5] = short-circuit current, FRT cells expressing human CFTR, forskolin-stimulated, read-out: IC50 for inhibition of CFTR chloride conductance
structure (smiles),measurement,setting,value
"Cn1c(=O)c2c(-c3ccccc3)n3c(c2n(C)c1=O)C(c1ccc(Br)o1)Oc1ccc([N+](=O)[O-])cc1-3 (centres unmarked) [BPO-21, 6-(5-bromofuran-2-yl)-7,9-Dimethyl-2-nitro-11-phenyl-6H-benzo[b]pyrimido[4′,5′-3,4]pyrrolo[1,2-d]oxazine-8,10-(7H,9H)-dione]",metabolic stability in hepatic microsomes (in words),[1],excellent metabolic stability
same,IC50,human wildtype CFTR [2]; [4],0.025 µM
same,inhibition of CFTR chloride conductance (in words),human wildtype CFTR [2]; short-circuit current,substantially greater CFTR inhibition potency
same,IC50,human wildtype CFTR [3],120 nM
"Cc1ccc(C2Oc3ccc([N+](=O)[O-])cc3-n3c(-c4ccccc4)c4c(=O)n(C)c(=O)n(C)c4c32)o1 (centres unmarked) [BPO-22, 7,9-Dimethyl-6-(5-methylfuran-2-yl)-2-nitro-11-phenyl-6H-benzo[b]pyrimido[4′,5′-3,4]pyrrolo[1,2-d]oxazine-8,10-(7H,9H)-dione]",IC50,human wildtype CFTR [2]; [4],0.025 µM
same,IC50,human wildtype CFTR [3],100 nM
"Cn1c(=O)c2c(-c3ccccc3)n3c(c2n(C)c1=O)[C@@H](c1ccc(Br)o1)Oc1ccc(C(=O)O)cc1-3 (single isomer, unassigned) [(S)-BPO-27, 6S-(5-Bromofuran-2-yl)-7,9-dimethyl-8,10-dioxo-11-phenyl-7,8,9,10-tetrahydro-6H-benzo[b]pyrimido [4′,5′:3,4]pyrrolo [1,2-d][1,4]oxazine-2-carboxylic acid]",metabolic stability in hepatic microsomes (in words),[1],little metabolism
same,inhibition of short-circuit current,human wildtype CFTR [2],no significant inhibition
same,inhibition of CFTR chloride conductance (in words),human wildtype CFTR [2]; short-circuit current,inactive
same,IC50,human wildtype CFTR [2]; [5],~0.004 µM
"CCOC(=O)c1ccc2c(c1)-n1c(-c3ccccc3)c3c(=O)n(C)c(=O)n(C)c3c1C(c1ccc(C)o1)O2 (centres unmarked) [BPO-26, Ethyl 7,9-Dimethyl-8,10-dioxo-6-(5-methylfuran-2-yl)-11-phenyl-7,8,9,10-tetrahydro-6H-benzo[b]pyrimido[4′,5′:3,4]pyrrolo[1,2-d][1,4]oxazine-2-carboxylate]",IC50,human wildtype CFTR [3],80 nM
"Cc1ccc(C2Oc3cc([N+](=O)[O-])c(Cl)cc3-n3c(-c4ccccc4)c4c(=O)n(C)c(=O)n(C)c4c32)o1 (centres unmarked) [BPO-24, 2-Chloro-7,9-Dimethyl-6-(5-methylfuran-2-yl)-3-nitro-11-phenyl-6H-benzo[b]pyrimido[4′,5′-3,4]pyrrolo[1,2-d]oxazine-8,10-(7H,9H)-dione]",IC50,human wildtype CFTR [3],170 nM
"CCc1ccc(C2Nc3ccccc3-n3c(-c4ccccc4)c4c(=O)n(C)c(=O)n(C)c4c32)o1 (centres unmarked) [PPQ-6, 7,9-Dimethyl-6-(5-ethylfuran-2-yl)-11-phenyl-5,6-dihydropyrimido[4′,5′-3,4]pyrrolo[1,2-a]quinoxaline-8,10-(7H,9H)-dione]",IC50,human wildtype CFTR [3],300 nM
"CCOC(=O)c1ccc2c(c1)-n1c(-c3ccccc3)c3c(=O)n(C)c(=O)n(C)c3c1C(c1ccc(Br)o1)O2 (racemic) [BPO-25, Ethyl 6-(5-Bromofuran-2-yl)-7,9-dimethyl-8,10-dioxo-11-phenyl-7,8,9,10-tetrahydro-6H-benzo[b]pyrimido[4′,5′:3,4]pyrrolo[1,2-d][1,4]oxazine-2-carboxylate]",IC50,human wildtype CFTR [2]; [4],0.025 µM
same,CFTR inhibition activity (in words),human wildtype CFTR [3],excellent CFTR inhibition activity
same,IC50,human wildtype CFTR [3],50 nM
"Cn1c(=O)c2c(-c3ccccc3)n3c(c2n(C)c1=O)C(c1ccc(I)o1)Nc1ccccc1-3 (centres unmarked) [PPQ-11, 7,9-Dimethyl-6-(5-iodofuran-2-yl)-11-phenyl-5,6-dihydropyrimido[4′,5′-3,4]pyrrolo[1,2-a]quinoxaline-8,10-(7H,9H)-dione]",IC50,human wildtype CFTR [2]; [4],0.1 µM
same,IC50,human wildtype CFTR [3],170 nM
"Cn1c(=O)c2c(-c3ccccc3)n3c(c2n(C)c1=O)C(c1ccc(-c2ccccc2)o1)Nc1ccccc1-3 (centres unmarked) [PPQ-13, 7,9-Dimethyl-11-phenyl-6-(5-phenylfuran-2-yl)-5,6-dihydropyrimido[4′,5′-3,4]pyrrolo[1,2-a]quinoxaline-8,10-(7H,9H)-dione]",IC50 (μm)^A,human wildtype CFTR [3],inactive
"Cn1c(=O)c2c(-c3ccccc3)n3c(c2n(C)c1=O)C(c1ccc(Br)o1)Nc1ccc([N+](=O)[O-])cc1-3 (centres unmarked) [PPQ-23, 6-(5-Bromofuran-2-yl)-7,9-dimethyl-2-nitro-11-phenyl-5,6-dihydropyrimido[4′,5′-3,4]pyrrolo[1,2-a]quinoxaline-8,10-(7H,9H)-dione]",IC50,human wildtype CFTR [3],170 nM
"Cn1c(=O)c2c(-c3ccccc3)n3c(c2n(C)c1=O)C(c1ccc(Cl)o1)Nc1ccccc1-3 (centres unmarked) [PPQ-9, 6(5-Chlorofuran-2-yl)-7,9-dimethyl-11-phenyl-5,6-dihydropyrimido[4′,5′-3,4]pyrrolo[1,2-a]quinoxaline-8,10-(7H,9H)-dione]",IC50,human wildtype CFTR [3],150 nM
"Cn1c(=O)c2c(-c3ccccc3)n3c(c2n(C)c1=O)[C@H](c1ccc(Br)o1)Oc1ccc(C(=O)O)cc1-3 (single isomer, unassigned) [(R)-BPO-27, 6R-(5-Bromofuran-2-yl)-7,9-dimethyl-8,10-dioxo-11-phenyl-7,8,9,10-tetrahydro-6H-benzo[b]pyrimido [4′,5′:3,4]pyrrolo [1,2-d][1,4]oxazine-2-carboxylic acid]",metabolic stability in hepatic microsomes (in words),[1],little metabolism
same,inhibition of short-circuit current,human wildtype CFTR [2],completed inhibited current
same,IC50,human wildtype CFTR [2]; [5],0.004 µM and ~0.004 µM
"Cn1c(=O)c2c(-c3ccccc3)n3c(c2n(C)c1=O)C(c1ccc(I)o1)Oc1ccccc1-3 (centres unmarked) [BPO-17, 7,9-Dimethyl-6-(5-iodofuran-2-yl)-11-phenyl-6Hbenzo[b]pyrimido[4′,5′-3,4]pyrrolo[1,2-d]oxazine-8,10-(7H,9H)-dione]",IC50,human wildtype CFTR [3],500 nM
"CC(=O)N1c2ccccc2-n2c(-c3ccccc3)c3c(=O)n(C)c(=O)n(C)c3c2C1c1ccc(C)o1 (centres unmarked) [PPQ-3, 5-Acetyl-7,9-dimethyl-6-(5-methylfuran-2-yl)-11-phenyl-5,6. -dihydropyrimido[4′,5′-3,4]pyrrolo[1,2-a]quinoxaline-8,10-(7H,9H)-dione]",IC50 (μm)^A,human wildtype CFTR [3],inactive
